Data as given in patent US20090186915A1, “Compositions and methods for treatment of glioblastoma, gliosarcoma, NSCLC, and head and neck cancer” (Unibioscreen S. A., priority 2006, published 2009).

Tests used:
[1] = UNBS5162 mouse pharmacokinetics; assay type: in vivo
Method: Mouse in-life phase. Female B6D2F1 mouse (Charles River, L'Arbresle, France) were administered a single i.v. bolus injection of 20 mg/kg or a single oral dose of 80-mg/kg UNBS5162 as a solution (formulated in 0.5% lactic acid). Dosing volume was 10 ml/kg body weight. The i.v. injection was performed through the tail vein, and the oral dose was given by gavage. Blood sampling for pharmacokinetic analysis was performed by cardiac puncture after Nembutal intraperitoneal injection. The blood was collected over Li-heparin at 0.05, 0.08, 0.17, 0.25, 0.33, 0.5, 0.75, 1, 2, 4, 7, 16, and 24 hours after dose. Five animals were used per time point. Blood was kept on ice for a maximum of 2 hours before isolating plasma by centrifugation, and the resulting plasma was stored at approximately −70° C. until analysis. The samples were subsequently analyzed for UNBS5162 by liquid chromatography-mass spectrometry.
Plasma concentrations of UNBS5162 were determined using liquid chromatography-mass spectrometry. […] Briefly, solid phase extraction was performed using SPE Oasis HLB columns of 1 ml (Waters). UNBS5162 and the internal standard UNBS5181 were eluted using methanol, evaporated to dryness and reconstituted in starting solvent, a mixture (90:10 v/v) of 0.05% aqueous formic acid (mobile phase A) and 0.05% formic acid in acetonitrile (mobile phase B). Liquid chromatographic separation was effected using an Atlantis T3 column (50×2.1 mm; 3 μm), with an isocratic method with a 90:10 v/v ratio of mobile phases A/B at a flow rate of 250 μl/min for 12.5 minutes, followed by 2 minutes of 100% mobile phase B and then 4.5 minutes reconditioning with the starting solvent at a flow rate of 250 μl/min. Compound detection and quantification were performed by positive ion electrospray ionization on a QToF Ultima mass spectrometer (Micromass, Manchester, UK).

DU-145 [2] = test: Cell cycle kinetics by flow cytometry (PI), DU-145; assay type: cell-based, human; conditions: 1 μM
Method: The cell cycle kinetics of prostate cancer cells left untreated or incubated with UNBS5162 were determined by flow cytometry analysis of propidium iodide (PI) nuclear staining, using previously detailed methodology. Each sample was evaluated in triplicate. Flow cytometry was undertaken using an Epics XL.MCL flow cytometer and the FACScan/CellQuest software system (Becton Dickinson, Miami, Fla.).

DU-145 [3] = test: Senescence-associated β-galactosidase staining, DU-145; assay type: cell-based, human; conditions: 10 μM, 72 hours
Description: Features typical of senescence have been induced by the compound of example 2 in human DU-145 prostate cancer cells. A senescent cell is known to typically show morphological changes, such as a flattened cytoplasm and increased granularity. The induction of senescence-associated β-galactosidase activity is a specific event occurring in cells undergoing senescence, a feature that was observed once more in the current study (according to the protocol found in Dimri et al., A biomarker that identifies senescent human cells in culture and in aging skin in vivo, Proc Natl Acad Sci USA. (1995) 92(20):9363-7), as evidenced in FIG. 4. Moderate doses (nM range) of doxorubicin (ADR) are known to induce senescence in wild-type human cancer cells. We therefore used doxorubicin as a positive control in our experiment.
After the indicated treatments, cells were washed in PBS, fixed for 3 to 5 minutes (at room temperature) in 2% formaldehyde/0.2% glutaraldehyde, washed and incubated at 37° C. […] 1995; 92:9363-9367.], after fixing and staining with X-Gal, the number of cells positive for the SA-β-Gal activity (intense blue staining) was then counted independently by two different individuals (on 400 cells/plate). […]
Human PC-3 and DU-145 prostate cancer cells cultured in 0 or 10 μM UNBS5162 or 20 nM Adriamycin for 72 hours were evaluated by SA-β-Gal staining. […]

[4] = test system: murine and human hematopoietic stem and progenitor cells; test: HALO hematotoxicity assay, overall statement; assay type: cell-based
Method: Investigation of the hematotoxic potential of UNBS5162 was undertaken by HemoGenix (Colorado Springs, Colo.). The effects of UNBS5162 on stem and progenitor cell populations from murine and human bone marrow were assessed using HALO (Hematopoietic/Hematotoxicity Assay through Luminescence Output) technology. Stem and hematopoietic progenitor cell populations were isolated from mouse and human bone marrow samples, plated at a concentration of 1.0×10^4 cells/well and cultured for 5 and 7 days, respectively, in the presence of growth factors and increasing concentrations of UNBS5162 ranging from 0.5 nM to 50 μM. The proliferative or growth potential of cell populations was determined from intracellular ATP (iATP) concentrations and a luciferin/luciferase bioluminescence signal detection system. All samples were assayed in eight replicates. The results are presented as estimated inhibitory concentration (IC) values.

OE21 xenograft = test: s.c. metastatic OE21 xenograft nude mice model; assay type: in vivo; conditions: UNBS5162 10 mg/kg i.v. with cisplatin 5 mg/kg i.p.
Method: To enable the achievement of pertinent in vivo studies, a highly metastatic s.c. model was developed by grafting OE21 cells subcutaneously into nude mice. […] In line with this, an experiment combining cisplatin to UNBS5162 was performed.
The treatment protocol included following conditions: • UNBS5162: N-{2-[2-(dimethylamino)ethyl]-1,3-dioxo-2,3-dihydro-1H-benzo[de]isoquinolin-5-yl}urea
Dose (mg/kg): 10 mg/kg (1.35 eq lactic acid) Dose volume: 200 μL/mouse Schedule: 3 injection(s) per week; 5 weeks (3i×5w)
Dose (mg/kg): 5 mg/kg (saline) Dose volume: 200 μL/mouse Schedule: 1 injection per week; 5 weeks (1×5)
Cisplatine (1×5)×5 mg/kg i.p.=>group 1 UNBS5162 (3×5)×10 mg/kg i.v.=>group 3 Cisplatine (1×3)×5 mg/kg i.p.=>1 w without treatment=>UNBS5162 (3×5)× […] i.v.=>group 4

[5] = B6D2F1, mouse, plasma, iv, female mice, i.v. 20 mg/kg single
[6] = B6D2F1, mouse, plasma, po, female mice, p.o. 80 mg/kg single

## CN(C)CCN1C(=O)c2cccc3cc(NC(N)=O)cc(c23)C1=O [UNBS5162, N-{2-[2-(dimethylamino)ethyl]-1,3-dioxo-2,3-dihydro-1H-benzo[de]isoquinolin-5-yl}urea]
[1]; [5]
  AUC(0-inf): 5770 ng·h/mL
  Cmax: 12000 ng/mL
  Vd: 18.9 L/kg
  half-life: 3.8 h
[1]; B6D2F1, mouse, plasma, oral, female mice, p.o. 80 mg/kg versus i.v. 20 mg/kg, read-out: F (absolute bioavailability)
  bioavailability: 3.84%
[1]; [6]
  AUC(0-inf): 886 ng·h/mL
  Cmax: 510 ng/mL
  Tmax: 0.3 h
[1]; female mice, i.v. 20 mg/kg single
  Cl: 3.47 L/h per kilogram
[1]; mice, post-i.v. 20 mg/kg
  time for which 1-μM plasma levels are sustained: ≤ 2 h
  time for which plasma levels of 10 μM are maintained: approximately 30 minutes
DU-145 [2]
  cell cycle kinetics: did not significantly (P>0.05) modify
DU-145 [3]
  senescence-associated β-galactosidase expression: induced marked expression of SA-β-Gal
DU-145 [3]; listed as example 2
  senescence-associated β-galactosidase expression: induced a similar percentage of senescence-associated β-galactosidase positive staining as 20 nM doxorubicin
[4]
  concentrations that were toxic (inhibited proliferation): higher than 1 μM
OE21 xenograft
  anti-tumor effect in combination with cisplatin (tumor size): enhanced the activity of cisplatin
